Calls of active or inactive are those of the source.
Legend:
[1] = Counterscreen for IDE inhibitors: Luminescence-based cell-based high throughput dose response assay to identify compounds that are cytotoxic to HEK cells. [Related pubchem assays: 434962 (Primary screen (IDE inhibitors in singlicate)), 449730 (Counterscreen (Cytotoxicity in triplicate)), 435028 (Confirmation (IDE inhibitors in triplicate)) …; type: functional; conditions: HEK293
[2] = mitochondrial function rescue without frataxin homolog – Friedreich's ataxia, plus single-dose screen, dose response (AID 1465); type: functional;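 further: yeast depleted of Yfh1p frataxin homolog grown on glycerol needing respiration; WST-1 tetrazolium dye reduction as measure of cellular dehydrogenase metabolic activity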
Protein skinhead-1 = target: T1, Protein skinhead-1 (Caenorhabditis elegans, UniProt P34707); type: functional
T1 sequence (P34707 whole entry): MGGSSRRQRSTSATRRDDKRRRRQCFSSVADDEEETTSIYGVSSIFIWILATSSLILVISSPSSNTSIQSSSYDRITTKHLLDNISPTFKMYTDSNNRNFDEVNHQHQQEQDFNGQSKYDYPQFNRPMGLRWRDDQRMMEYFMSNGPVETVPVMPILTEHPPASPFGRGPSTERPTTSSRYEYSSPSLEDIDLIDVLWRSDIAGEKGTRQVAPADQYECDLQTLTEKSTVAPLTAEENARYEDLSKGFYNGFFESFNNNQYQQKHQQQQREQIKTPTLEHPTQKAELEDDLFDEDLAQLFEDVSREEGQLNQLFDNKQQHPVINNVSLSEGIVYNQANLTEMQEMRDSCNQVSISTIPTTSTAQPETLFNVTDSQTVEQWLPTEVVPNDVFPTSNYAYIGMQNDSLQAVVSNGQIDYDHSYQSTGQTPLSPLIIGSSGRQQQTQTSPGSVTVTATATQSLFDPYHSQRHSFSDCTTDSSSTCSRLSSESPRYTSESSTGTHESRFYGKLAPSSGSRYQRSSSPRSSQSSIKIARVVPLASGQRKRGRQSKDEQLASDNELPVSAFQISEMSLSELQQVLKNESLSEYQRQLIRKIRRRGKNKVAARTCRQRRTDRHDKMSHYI

[3] = target: T2, Rac GTPase-activating protein 1 (Homo sapiens, UniProt Q9H0H5); experiment: blockers of MgcRacGAP-driven Rac1 GTP hydrolysis – biochemical, ADP Hunter fluorescence, primary and confirmatory, confirmation (AID 624330); type: functional
T2 sequence (Q9H0H5 whole entry): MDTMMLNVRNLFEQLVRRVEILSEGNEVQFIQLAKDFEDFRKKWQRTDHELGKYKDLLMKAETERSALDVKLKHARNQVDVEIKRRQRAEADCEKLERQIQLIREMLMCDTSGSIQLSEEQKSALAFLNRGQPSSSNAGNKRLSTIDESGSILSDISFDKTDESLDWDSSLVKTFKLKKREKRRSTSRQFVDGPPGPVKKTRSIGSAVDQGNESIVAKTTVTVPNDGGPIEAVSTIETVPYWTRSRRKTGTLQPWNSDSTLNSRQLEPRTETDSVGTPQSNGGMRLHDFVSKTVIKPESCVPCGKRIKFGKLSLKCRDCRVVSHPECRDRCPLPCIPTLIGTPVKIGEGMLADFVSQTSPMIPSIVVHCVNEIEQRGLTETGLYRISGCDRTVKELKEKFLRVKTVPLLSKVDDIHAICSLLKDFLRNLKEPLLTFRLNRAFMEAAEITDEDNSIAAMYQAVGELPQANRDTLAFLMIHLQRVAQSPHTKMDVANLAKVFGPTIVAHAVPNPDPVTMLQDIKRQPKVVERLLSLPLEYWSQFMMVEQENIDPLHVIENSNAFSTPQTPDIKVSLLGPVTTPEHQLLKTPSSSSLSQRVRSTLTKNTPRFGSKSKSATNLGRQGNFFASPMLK

Insulin-degrading enzyme = target: T3, Insulin-degrading enzyme (Homo sapiens, UniProt P14735); experiment: Dose Response: Fluorescence polarization-based cell-based high throughput dose response assay for inhibitors of insulin-degrading enzyme (IDE). [Related pubchem assays: 434962 (Primary screen (IDE inhibitors in singlicate)), 449730 (Counterscreen (Cytotoxicity in triplicate)), 435028 (Confirmation (IDE inhibitors in triplicate)), 434984 (Summary …; type: functional
T3 sequence (P14735 whole entry): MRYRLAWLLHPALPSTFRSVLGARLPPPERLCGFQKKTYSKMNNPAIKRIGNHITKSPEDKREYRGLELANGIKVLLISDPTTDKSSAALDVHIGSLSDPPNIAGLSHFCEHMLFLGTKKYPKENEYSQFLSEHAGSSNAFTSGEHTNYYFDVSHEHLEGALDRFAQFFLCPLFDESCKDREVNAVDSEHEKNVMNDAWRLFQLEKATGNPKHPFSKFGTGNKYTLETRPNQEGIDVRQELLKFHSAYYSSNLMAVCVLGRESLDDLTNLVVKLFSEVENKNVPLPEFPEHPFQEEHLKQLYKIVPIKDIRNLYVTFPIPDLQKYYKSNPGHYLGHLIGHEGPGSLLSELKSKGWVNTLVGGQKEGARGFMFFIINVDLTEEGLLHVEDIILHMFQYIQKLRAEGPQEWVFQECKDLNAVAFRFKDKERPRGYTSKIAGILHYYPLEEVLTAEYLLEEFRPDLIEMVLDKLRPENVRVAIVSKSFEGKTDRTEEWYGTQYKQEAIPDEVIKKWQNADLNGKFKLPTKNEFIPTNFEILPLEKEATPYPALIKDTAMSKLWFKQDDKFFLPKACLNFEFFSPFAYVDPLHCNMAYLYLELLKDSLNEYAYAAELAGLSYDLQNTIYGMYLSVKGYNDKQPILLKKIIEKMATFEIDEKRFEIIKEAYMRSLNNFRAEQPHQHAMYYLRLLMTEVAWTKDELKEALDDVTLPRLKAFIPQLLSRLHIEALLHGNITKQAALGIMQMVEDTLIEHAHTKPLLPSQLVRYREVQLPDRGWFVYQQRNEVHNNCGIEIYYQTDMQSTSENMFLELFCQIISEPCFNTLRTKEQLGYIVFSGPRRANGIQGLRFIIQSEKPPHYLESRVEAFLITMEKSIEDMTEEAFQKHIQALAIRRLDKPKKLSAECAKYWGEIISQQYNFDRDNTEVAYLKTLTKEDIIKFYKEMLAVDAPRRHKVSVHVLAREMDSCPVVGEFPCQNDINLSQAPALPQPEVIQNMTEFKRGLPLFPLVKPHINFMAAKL

[4] = blockade of melanocortin 4 receptor signaling – cell-based, plate reader, cherry pick, counter-screen for LGR2 antagonist project, dose response (AID 743444); type: functional;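 further: transfected HEK 293 cells stimulated with alpha-MSH peptide; potency of inhibitors of the alpha-MSH evoked signal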
[5] = blockers of bursicon-stimulated LGR2 cAMP reporter – cell-based, HEK293, CRE-luciferase reporter, cherry pick, set 2, dose response (AID 743343); type: functional;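 further: transfected cells were stimulated with diluted bursicon conditioned medium after compound addition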
[6] = A549 cell cytotoxicity, dose response, cytotoxicity control, plate reader, cherry-pick, antagonist series (AID 743412); type: functional, cell-based
[7] = toxicity toward HepG2 liver cells – cell-based, plate reader, cherry-pick, antagonist series, cytotoxicity control, dose response (AID 743416); type: functional
[8] = Luminescence-based counterscreen assay for KLF5 inhibitors: dose response cell-based high throughput screening assay to identify cytotoxic compounds using the IEC-6 intestinal epithelial cell line. [Related pubchem assays: 1700 (Primary screen.), 1834 (Confirmation screen.), 1858 (Summary AID.), 1905 (Counterscreen.)]; type: functional
[9] = target: T4, Dual specificity protein phosphatase 6 (Rattus norvegicus, UniProt Q64346)
T4 sequence (Q64346 whole entry): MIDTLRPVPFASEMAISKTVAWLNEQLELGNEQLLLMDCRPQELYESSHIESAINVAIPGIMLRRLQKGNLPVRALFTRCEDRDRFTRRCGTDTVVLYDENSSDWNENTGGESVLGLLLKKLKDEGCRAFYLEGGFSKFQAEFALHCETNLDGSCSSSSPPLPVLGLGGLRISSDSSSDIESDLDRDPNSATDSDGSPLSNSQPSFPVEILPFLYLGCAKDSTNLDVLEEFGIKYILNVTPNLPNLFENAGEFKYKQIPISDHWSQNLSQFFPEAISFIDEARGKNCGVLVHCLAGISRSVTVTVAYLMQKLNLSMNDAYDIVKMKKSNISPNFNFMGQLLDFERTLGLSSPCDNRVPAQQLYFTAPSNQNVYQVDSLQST

[10] = target: Heat shock cognate 71 kDa protein (Homo sapiens, UniProt P11142); experiment: In Vitro Hsc70 Dose Response Fluorescence Polarization Assay. [Related pubchem assays: 1072 ]
Heat shock cognate 71 kDa protein, sequence (P11142 whole entry): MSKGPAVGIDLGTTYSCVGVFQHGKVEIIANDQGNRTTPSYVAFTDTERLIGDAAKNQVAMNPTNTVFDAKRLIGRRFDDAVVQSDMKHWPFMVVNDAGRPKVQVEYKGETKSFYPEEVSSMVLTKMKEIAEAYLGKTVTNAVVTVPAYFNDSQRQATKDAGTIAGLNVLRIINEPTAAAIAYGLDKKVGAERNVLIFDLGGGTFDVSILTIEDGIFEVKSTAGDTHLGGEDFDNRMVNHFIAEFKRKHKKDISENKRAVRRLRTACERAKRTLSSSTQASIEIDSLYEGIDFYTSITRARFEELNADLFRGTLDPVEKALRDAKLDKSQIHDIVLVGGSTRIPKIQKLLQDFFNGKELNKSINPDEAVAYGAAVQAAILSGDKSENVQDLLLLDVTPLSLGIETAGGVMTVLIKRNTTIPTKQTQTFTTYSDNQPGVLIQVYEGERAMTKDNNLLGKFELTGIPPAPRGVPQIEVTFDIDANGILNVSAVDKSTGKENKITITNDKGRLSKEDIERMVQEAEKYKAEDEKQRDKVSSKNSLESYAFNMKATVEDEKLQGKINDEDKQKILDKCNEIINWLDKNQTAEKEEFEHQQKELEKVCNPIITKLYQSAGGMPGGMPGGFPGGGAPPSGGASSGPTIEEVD

[11] = target: T5, Tyrosine-protein phosphatase non-receptor type 7 (Homo sapiens, UniProt P35236); type: functional
T5 sequence (P35236 whole entry): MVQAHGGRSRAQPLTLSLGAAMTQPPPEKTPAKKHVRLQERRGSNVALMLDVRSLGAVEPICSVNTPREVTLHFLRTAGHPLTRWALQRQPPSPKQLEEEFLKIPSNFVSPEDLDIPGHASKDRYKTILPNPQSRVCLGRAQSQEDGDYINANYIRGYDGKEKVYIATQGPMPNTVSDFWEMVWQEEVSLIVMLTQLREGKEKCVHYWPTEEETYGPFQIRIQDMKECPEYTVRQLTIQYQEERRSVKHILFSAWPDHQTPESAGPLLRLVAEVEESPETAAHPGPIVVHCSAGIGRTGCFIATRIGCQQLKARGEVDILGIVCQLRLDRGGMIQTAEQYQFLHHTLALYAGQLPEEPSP

[12] = target: T4, Dual specificity protein phosphatase 6; type: functional
[13] = target: Heat shock 70 kDa protein 1A (Homo sapiens, UniProt P0DMV8); experiment: inhibition of Hsp70 binding activity – biochemical, fluorescence polarization, SAR follow-up (AID 1072)
Heat shock 70 kDa protein 1A, sequence (P0DMV8 whole entry): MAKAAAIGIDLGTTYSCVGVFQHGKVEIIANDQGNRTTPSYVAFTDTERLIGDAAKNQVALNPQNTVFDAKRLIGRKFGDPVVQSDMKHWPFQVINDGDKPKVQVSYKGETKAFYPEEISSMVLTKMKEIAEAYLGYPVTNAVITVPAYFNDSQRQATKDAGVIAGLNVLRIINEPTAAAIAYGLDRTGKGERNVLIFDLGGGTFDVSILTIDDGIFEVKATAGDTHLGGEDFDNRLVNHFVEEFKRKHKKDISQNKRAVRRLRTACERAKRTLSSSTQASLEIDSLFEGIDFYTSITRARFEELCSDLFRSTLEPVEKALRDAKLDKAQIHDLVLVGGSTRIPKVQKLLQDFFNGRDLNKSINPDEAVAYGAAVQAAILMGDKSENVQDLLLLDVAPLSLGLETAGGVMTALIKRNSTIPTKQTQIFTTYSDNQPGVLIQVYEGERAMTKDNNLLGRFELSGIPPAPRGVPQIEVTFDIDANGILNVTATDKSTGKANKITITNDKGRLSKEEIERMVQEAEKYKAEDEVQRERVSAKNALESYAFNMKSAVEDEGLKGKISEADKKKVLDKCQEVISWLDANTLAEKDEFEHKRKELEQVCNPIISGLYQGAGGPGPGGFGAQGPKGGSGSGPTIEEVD

[14] = target: Glyceraldehyde-3-phosphate dehydrogenase (Homo sapiens, UniProt P04406)
Glyceraldehyde-3-phosphate dehydrogenase, sequence (P04406 whole entry): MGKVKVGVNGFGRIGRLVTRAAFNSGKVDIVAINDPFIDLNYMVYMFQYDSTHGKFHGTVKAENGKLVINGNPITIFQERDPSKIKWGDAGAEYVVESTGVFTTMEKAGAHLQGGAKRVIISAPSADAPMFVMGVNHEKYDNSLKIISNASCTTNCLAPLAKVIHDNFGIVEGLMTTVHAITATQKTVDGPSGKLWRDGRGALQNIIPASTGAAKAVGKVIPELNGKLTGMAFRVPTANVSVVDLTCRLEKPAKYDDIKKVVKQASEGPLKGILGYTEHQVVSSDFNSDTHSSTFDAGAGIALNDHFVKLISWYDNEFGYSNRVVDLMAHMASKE

[15] = target: Transitional endoplasmic reticulum ATPase (Homo sapiens, UniProt P55072, C522A); experiment: C522A mutant p97 ATPase inhibitors, dose response, counter-screen for p97 inhibitor project, biochemical, luminescence (AID 1544)
Transitional endoplasmic reticulum ATPase (Homo sapiens, UniProt P55072, C522A), sequence (P55072 2-806 C522A limits assumed): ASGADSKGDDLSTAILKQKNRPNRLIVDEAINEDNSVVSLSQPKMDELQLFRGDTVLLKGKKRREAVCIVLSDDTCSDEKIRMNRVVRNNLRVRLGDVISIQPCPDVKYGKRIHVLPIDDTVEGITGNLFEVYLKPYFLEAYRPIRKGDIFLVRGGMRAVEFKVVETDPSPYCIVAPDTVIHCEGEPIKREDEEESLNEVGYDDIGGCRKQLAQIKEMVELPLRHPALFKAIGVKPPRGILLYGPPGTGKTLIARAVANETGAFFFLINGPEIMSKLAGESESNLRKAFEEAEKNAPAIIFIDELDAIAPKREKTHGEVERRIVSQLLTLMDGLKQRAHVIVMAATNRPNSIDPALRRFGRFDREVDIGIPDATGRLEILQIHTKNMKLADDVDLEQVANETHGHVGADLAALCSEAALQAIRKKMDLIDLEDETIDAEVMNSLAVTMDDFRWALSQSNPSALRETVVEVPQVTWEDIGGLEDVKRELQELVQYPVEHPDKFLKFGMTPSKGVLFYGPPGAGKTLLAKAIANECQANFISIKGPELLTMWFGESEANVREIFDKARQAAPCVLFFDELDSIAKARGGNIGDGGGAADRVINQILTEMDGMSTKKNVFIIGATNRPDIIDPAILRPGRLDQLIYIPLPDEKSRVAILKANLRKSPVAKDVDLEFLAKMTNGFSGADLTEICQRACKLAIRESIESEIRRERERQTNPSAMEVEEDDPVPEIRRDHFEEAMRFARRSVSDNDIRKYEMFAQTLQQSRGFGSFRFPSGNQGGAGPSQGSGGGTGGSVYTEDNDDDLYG

[16] = target: Transitional endoplasmic reticulum ATPase (Homo sapiens, UniProt P55072); experiment: p97 ATPase inhibitors, dose response, biochemical (AID 1534)
Transitional endoplasmic reticulum ATPase (Homo sapiens, UniProt P55072), sequence (P55072 whole entry): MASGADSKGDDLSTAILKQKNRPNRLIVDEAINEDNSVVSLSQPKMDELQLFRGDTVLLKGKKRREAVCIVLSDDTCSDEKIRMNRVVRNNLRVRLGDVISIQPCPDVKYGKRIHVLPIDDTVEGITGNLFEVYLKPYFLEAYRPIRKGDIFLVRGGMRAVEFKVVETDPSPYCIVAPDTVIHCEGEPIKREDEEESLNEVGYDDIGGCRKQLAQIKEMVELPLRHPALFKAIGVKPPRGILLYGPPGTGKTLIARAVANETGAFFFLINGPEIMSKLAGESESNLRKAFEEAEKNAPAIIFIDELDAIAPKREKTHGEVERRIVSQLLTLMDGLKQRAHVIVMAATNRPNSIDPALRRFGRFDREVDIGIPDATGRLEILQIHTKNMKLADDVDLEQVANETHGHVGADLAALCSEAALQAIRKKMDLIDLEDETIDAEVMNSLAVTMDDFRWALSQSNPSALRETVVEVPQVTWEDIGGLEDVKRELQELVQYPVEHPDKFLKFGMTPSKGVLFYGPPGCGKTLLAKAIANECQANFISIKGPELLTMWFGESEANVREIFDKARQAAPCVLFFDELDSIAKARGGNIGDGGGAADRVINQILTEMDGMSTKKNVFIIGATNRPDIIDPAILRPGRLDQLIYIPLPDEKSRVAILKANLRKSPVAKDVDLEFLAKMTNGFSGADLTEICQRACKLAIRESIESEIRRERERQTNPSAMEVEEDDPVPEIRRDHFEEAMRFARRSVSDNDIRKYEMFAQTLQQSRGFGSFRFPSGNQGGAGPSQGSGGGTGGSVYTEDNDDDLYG

[17] = A Cell Based Secondary Assay To Explore Cytotoxicity of Compounds that Sensitize Mycobacterium Tuberculosis to Beta-Lactam Antibiotics.; type: functional

Cc1c(N2C(=O)/C(=C\c3ccc(N(C)C)cc3)N(C)C2=S)c(=O)n(-c2ccccc2)n1C
IC50 [1]: 37.9 µM (not active)
EC50 [2]: > 100 µM (active)
IC50 (Protein skinhead-1): 57.2 µM (inactive)
IC50 [3]: 74.4 µM (active)
IC50 (Insulin-degrading enzyme): 13.9 µM (not active)

COc1ccc(Cl)cc1C(=O)Nc1nc2ccccc2[nH]1
AC50 [4]: 2.46 µM (active)
AC50 [5]: 2.05 µM (active)
AC50 [6]: > 52 µM (inactive)
AC50 [7]: > 52 µM (inactive)
IC50 [8]: > 39.8 µM (not active)

O=C(O)C1Nc2cc(Cl)cc(Cl)c2C2C=CCC12 (centres undefined)
IC50 [9]: 61.6 µM (active)
IC50 [10]: 53 µM (active)
IC50 [11]: > 100 µM (not active)
IC50 [12]: > 100 µM (inactive)
IC50 [13]: 18.1 µM (active)
IC50 [14]: 62.7 µM (active)

COc1ccc2ccccc2c1/C=N/NC(=O)c1sc(N)c(C#N)c1C
IC50 [15]: > 50 µM (not active)
IC50 [16]: 2.58 µM (active)

CCOc1ccc(/C=N/NC(=O)c2ccccc2O)cc1CN1CC2CC(C1)c1cccc(=O)n1C2 (centres undefined)
CC50 [17]: 23 µM (active)

From ChEMBL document CHEMBL1201862, “PubChem BioAssay data set” (2004)
